# Results as given in patent US20240285571A1, “METHODS OF TREATING BONE INFECTIONS” (MICROBION CORPORATION, priority 2020, published 2024).
# Tests used:
# Acinetobacter baumannii = experiment: Broth microdilution MIC (Example 6); type: cell-based
# Method: (§1) Test Compounds: The test agents BisEDT (MB-1-B3; Lot No. ED268-1-11-01), MB-2B, and MB-6 were stored at room temperature, in the dark, until assayed. The solvent and diluent for the test agents was DMSO (Sigma; St. Louis, MO; Lot No. SHBB9319V) and the prepared stock concentration was 6,464 μg/mL (101× the final test concentration).
# (§2) Test compounds were evaluated at a concentration range of 0.06-64 μg/mL. For Gram-negative test isolates, amikacin and ceftazidime (alone and with clavulanate at a fixed concentration of 4 μg/mL) were evaluated over a concentration range of 0.06-64 μg/mL; meropenem and levofloxacin were evaluated over a concentration range of 0.008-8 μg/mL. For the testing of S. aureus, clindamycin, daptomycin, levofloxacin and vancomycin were evaluated at a concentration range of 0.008-8 μg/mL; linezolid was tested from 0.03-32 μg/mL.
# (§3) Media: Cation-adjusted Mueller Hinton broth (CAMHB; BD; Lot No. 8190586) was used as the medium for testing (2, 3). For testing daptomycin, calcium was supplemented with […] Ca^2+, resulting in a final concentration of […] Ca^2+ (2, 3).
# (§4) MIC Assay Procedure: MIC values were determined using a broth microdilution procedure described by CLSI (2, 3). Automated liquid handlers (Multidrop 384, Labsystems, Helsinki, Finland; Biomek 2000 and Biomek F X, Beckman Coulter, Fullerton CA) were used to conduct serial dilutions and liquid transfers.
# (§5) To prepare the drug mother plates, which would provide the serial drug dilutions for the replicate daughter plates, the wells of columns 2 through 12 of standard 96-well microdilution plates (Costar 3795) were filled with 150 μl of the appropriate diluent for each row of drug. The test articles and comparator compounds (300 μl at 101× the highest concentration to be tested) were dispensed into the appropriate wells in column 1. The Biomek 2000 was then used to make 2-fold serial dilutions in the mother plates from column 1 through column 11. The wells of column 12 contained no drug and served as the organism growth control wells for the assay.
# (§6) The daughter plates were loaded with 190 μL per well of RPMI using the Multidrop 384. The test panels were prepared on the Biomek FX instrument which transferred 2 μL of drug solution from each well of a mother plate to the corresponding well of each daughter plate in a single step.
# (§7) A standardized inoculum of each test organism was prepared per CLSI methods to equal a 0.5 McFarland standard, followed by a dilution of 1:20. The plates were then inoculated with 10 μL of the diluted inoculum using the Biomek 2000 from low to high drug concentration resulting in a final concentration of approximately 5×10^5 CFU/mL.
# (§8) Plates were stacked 3-4 high, covered with a lid on the top plate, placed into plastic bags, and incubated at 35° C. for 16 to 20 hr (vancomycin was read for S. aureus after 24 hr incubation time). The MIC was recorded as the lowest concentration of drug that inhibited visible growth of the organism.
# Klebsiella pneumoniae = experiment: Broth microdilution MIC (Example 6); type: cell-based
# Method: (§9) Test Compounds: The test agents BisEDT (MB-1-B3; Lot No. ED268-1-11-01), MB-2B, and MB-6 were stored at room temperature, in the dark, until assayed.
# (§10) For testing daptomycin, calcium was supplemented with […] Ca^2+, resulting in a final concentration of […] Ca^2+ (2, 3).
# (§11) MIC Assay Procedure: MIC values were determined using a broth microdilution procedure described by CLSI (2, 3).
# (§12) The Biomek 2000 was then used to make 2-fold serial dilutions in the mother plates from column 1 through column 11. The wells of column 12 contained no drug and served as the organism growth control wells for the assay.
# (§13) The test panels were prepared on the Biomek FX instrument which transferred 2 μL of drug solution from each well of a mother plate to the corresponding well of each daughter plate in a single step.
# as §7, §8
# Escherichia coli = experiment: Broth microdilution MIC (Example 6); type: cell-based
# Method: as §9, §10, §11, §12, §13, §7, §8
# Pseudomonas aeruginosa = experiment: Broth microdilution MIC (Example 6); type: cell-based
# Method: as §9, §10, §11, §12, §13, §7, §8
# [1] = tested on: relevant ATCC QC organisms; experiment: Broth microdilution MIC, QC (Example 6); type: cell-based
# Method: as §1, §2
# Organisms: The test organisms as shown in Tables 11-15 consisted of clinical isolates from the Micromyx (MMX) repository and reference strains from the American Type Culture Collection (ATCC; Manassas, VA), National Collection of Type Cultures (NCTC; Public Health England, Salisbury, UK), the Network on Antimicrobial Resistance in Staphylococcus aureus (NARSA; BEI Resources, Manassas, VA), and the Centers for Disease Control and Prevention (CDC; Atlanta, GA). The test organisms were maintained frozen at −80° C. Prior to testing, the isolates were cultured on Tryptic Soy Agar with 5% sheep blood (BAP; Becton Dickson [BD]/BBL; Sparks, MD; Lot Nos. 9080650 and 9108563) at 35° C. Relevant ATCC quality control (QC) organisms (Table 16) were included during testing in accordance with CLSI guidelines (3). Further details on the genetic characterization of the isolates where available can be found in Table 17.
# as §3, §4, §5, §6, §7, §8
# [2] = tested on: vancomycin-intermediate Staphylococcus aureus; experiment: Broth microdilution MIC (Example 6); type: cell-based
# Method: as §1, §2, §3, §4, §5, §6, §7, §8
# S. pneumoniae = experiment: Broth microdilution MIC (Example 5); type: cell-based
# Method: (§14) Test and Comparator Agents: The test agents were stored at room temperature until assayed. […] The stock solutions were allowed to stand for at least 1 hr prior to use to auto-sterilize.
# (§15) TestMedia: Test media were prepared and stored in accordance with guidelines from CLSI (4, 6, 7).
# (§16) Broth Microdilution MC Testing (Aerobic Bacteria and Yeast): The broth microdilution assay method employed for the susceptibility testing of aerobic bacteria (excluding N. gonorrhoeae which was evaluated by agar dilution) and yeast essentially followed the procedures described by CLSI (3, 4, 7, 8) and employed automated liquid handlers to conduct serial dilutions and liquid transfers. […] These would become the ‘mother plates’ from which ‘daughter’ or test plates would be prepared. The drugs (300 μL at 40× the desired top concentration in the test plates) were dispensed into the appropriate well in Column 1 of the mother plates. The Biomek 2000 was used to make serial two-fold dilutions through Column 11 in the “mother plate”. The wells of Column 12 contained no drug and ultimately served as the organism growth control wells.
# (§17) The daughter plates were prepared using the Biomek FX which transferred 5 μL of drug solution from each well of a mother plate to the corresponding well of the correct daughter plate in a single step.
# (§18) A standardized inoculum of each organism was prepared per CLSI methods (3, 7). Isolated colonies of each test isolate were picked from the primary plate and a suspension was prepared to equal a 0.5 McFarland turbidity standard. Standardized suspensions were then diluted […] (1:100 for yeast, 1:20 for bacteria). After dilution, the inoculum suspensions were then transferred to compartments of sterile reservoirs divided by length (Beckman Coulter), and the Biomek 2000 was used to inoculate all plates. Daughter plates were placed on the Biomek 2000 in reverse orientation so that plates were inoculated from low to high drug concentration.
# (§19) The Biomek 2000 delivered 10 μL of standardized inoculum into each well of the appropriate daughter plate for an additional 1:20 dilution.
# (§20) Plates were stacked 4 high, covered with a lid on the top plate, placed into plastic bags, and incubated at 35° C. for approximately 24-48 hr for all yeast isolates and 16-24 hr for aerobic bacteria. Plates were viewed from the bottom using a plate viewer. […] MIC endpoints for the test agents and control compounds were read per CLSI criteria (3, 7).
# S. aureus = experiment: Broth microdilution MIC (Example 5); type: cell-based, Staphylococcus aureus; settings: Staphylococcus aureus, ATCC 29213 / MSSA, S. aureus MMX 101 (ATCC 29213); QC; MSSA; read-out: MIC
# Method: as §14, §15, §16, §17, §18, §19, §20
smiles,measurement,setting,value
CC(C)(O/N=C(\C(=O)N[C@@H]1C(=O)N2C(C(=O)[O-])=C(C[n+]3ccccc3)CS[C@H]12)c1csc(N)n1)C(=O)O.O=C(O)[C@H]1/C(=C/CO)O[C@@H]2CC(=O)N21 [CAZ/CLAV],MIC,"Acinetobacter baumannii; A. baumannii isolate CDC 273, β-lactamase type ESBL/OXA",64/4
same,MIC,"Acinetobacter baumannii; A. baumannii isolate CDC 274, β-lactamase type ESBL/OXA",>64/4
same,MIC,"Acinetobacter baumannii; A. baumannii isolate CDC 275, β-lactamase type ESBL/OXA",>64/4
same,MIC,"Acinetobacter baumannii; A. baumannii isolate CDC 277, β-lactamase type ESBL/OXA",>64/4
same,MIC,"Acinetobacter baumannii; A. baumannii isolate CDC 284, β-lactamase type ESBL/OXA",16/4
same,MIC,"Acinetobacter baumannii; A. baumannii isolate CDC 307, β-lactamase type OXA",64/4
same,MIC,"Acinetobacter baumannii; A. baumannii isolate CDC 308, β-lactamase type ESBL/OXA",64/4
same,MIC,"Acinetobacter baumannii; A. baumannii isolate CDC 311, β-lactamase type OXA",>64/4
same,MIC,"Acinetobacter baumannii; A. baumannii isolate CDC 312, β-lactamase type OXA",>64/4
same,MIC,"Acinetobacter baumannii; A. baumannii isolate CDC 313, β-lactamase type ESBL/OXA",>64/4
same,MIC,"Acinetobacter baumannii; A. baumannii isolate NCTC 13304, β-lactamase type OXA",>64/4
same,MIC,"Klebsiella pneumoniae; K. pneumoniae ATCC BAA-1705, ESBL/KPC",>64/4
same,MIC,"Klebsiella pneumoniae; K. pneumoniae CDC 112, KPC",>64/4
same,MIC,"Klebsiella pneumoniae; K. pneumoniae CDC 113, ESBL/KPC",>64/4
same,MIC,"Klebsiella pneumoniae; K. pneumoniae CDC 115, ESBL/KPC",>64/4
same,MIC,"Klebsiella pneumoniae; K. pneumoniae CDC 120, ESBL/KPC",64/4
same,MIC,"Klebsiella pneumoniae; K. pneumoniae CDC 126, ESBL/KPC",8 µg/mL
same,MIC,"Klebsiella pneumoniae; K. pneumoniae CDC 129, ESBL/KPC",>64/4
same,MIC,"Klebsiella pneumoniae; K. pneumoniae CDC 135, ESBL/VIM",>64/4
same,MIC,"Klebsiella pneumoniae; K. pneumoniae CDC 138, ESBL/NDM",>64/4
same,MIC,"Klebsiella pneumoniae; K. pneumoniae CDC 158, ESBL/NDM/OXA",>64/4
same,MIC,"Escherichia coli; E. coli ATCC BAA-2471, NDM",>64/4
same,MIC,"Escherichia coli; E. coli CDC 114, ESBL/KPC",64/4
same,MIC,"Escherichia coli; E. coli CDC 118, ESBL/NDM",>64/4
same,MIC,"Escherichia coli; E. coli CDC 435, NDM",>64/4
same,MIC,"Escherichia coli; E. coli CDC 451, KPC",16/4
same,MIC,"Escherichia coli; E. coli CDC 503, ESBL/NDM",>64/4
same,MIC,"Escherichia coli; E. coli MMX 5745, KPC",16/4
same,MIC,"Escherichia coli; E. coli MMX 5755, ESBL",1/4
same,MIC,"Pseudomonas aeruginosa; P. aeruginosa isolate CDC 230, β-lactamase type VIM/OXA",32/4
same,MIC,"Pseudomonas aeruginosa; P. aeruginosa isolate CDC 231, β-lactamase type KPC/OXA",>64/4
same,MIC,"Pseudomonas aeruginosa; P. aeruginosa isolate CDC 241, β-lactamase type IMP/OXA",>64/4
same,MIC,"Pseudomonas aeruginosa; P. aeruginosa isolate CDC 246, β-lactamase type NDM/OXA",>64/4
same,MIC,"Pseudomonas aeruginosa; P. aeruginosa isolate CDC 250, β-lactamase type NDM/OXA",>64/4
same,MIC,"Pseudomonas aeruginosa; P. aeruginosa isolate CDC 356, β-lactamase type KPC",64/4
same,MIC,"Pseudomonas aeruginosa; P. aeruginosa isolate CDC 439, β-lactamase type IMP",>64/4
same,MIC,"Pseudomonas aeruginosa; P. aeruginosa isolate CDC 444, β-lactamase type VIM",32/4
same,MIC,"Pseudomonas aeruginosa; P. aeruginosa isolate CDC 457, β-lactamase type VIM",64/4
same,MIC,"Pseudomonas aeruginosa; P. aeruginosa isolate CDC 516, β-lactamase type KPC/AmpC",64/4
same,MIC,"Pseudomonas aeruginosa; P. aeruginosa isolate CDC 518, β-lactamase type KPC/AmpC",32/4
CC(C)(O/N=C(\C(=O)N[C@@H]1C(=O)N2C(C(=O)[O-])=C(C[n+]3ccccc3)CS[C@H]12)c1csc(N)n1)C(=O)O.O=C(O)[C@H]1/C(=C/CO)O[C@@H]2CC(=O)N21 [CAZ + CLAV],MIC,[1]; K. pneumoniae ATCC BAA-1705,>64/4
same,MIC,[1]; P. aeruginosa ATCC 27853,2/4
CCCCCCCCCC(=O)N[C@@H](Cc1c[nH]c2ccccc12)C(=O)N[C@H](CC(N)=O)C(=O)N[C@@H](CC(=O)O)C(=O)N[C@@H]1C(=O)NCC(=O)N[C@@H](CCCN)C(=O)N[C@@H](CC(=O)O)C(=O)N[C@H](C)C(=O)N[C@@H](CC(=O)O)C(=O)NCC(=O)N[C@H](CO)C(=O)N[C@@H]([C@H](C)CC(=O)O)C(=O)N[C@@H](CC(=O)c2ccccc2N)C(=O)O[C@@H]1C [DAP],MIC,[2]; S. aureus isolate NRS 1 (hVISA),1 µg/mL
same,MIC,[2]; S. aureus isolate NRS 2,0.25 µg/mL
same,MIC,[2]; S. aureus isolate NRS 3,1 µg/mL
same,MIC,[2]; S. aureus isolate NRS 4,0.5 µg/mL
same,MIC,[2]; S. aureus isolate NRS 13,2 µg/mL
same,MIC,[2]; S. aureus isolate NRS 18,0.5 µg/mL
same,MIC,[2]; S. aureus isolate NRS 22,2 µg/mL
same,MIC,[2]; S. aureus isolate NRS 24 (hVISA),0.5 µg/mL
same,MIC,[2]; S. aureus isolate NRS 27,0.25 µg/mL
same,MIC,[1]; S. aureus ATCC 29213,0.5 µg/mL
COc1cc(Cc2cnc(N)nc2N)cc(OC)c1OC.Cc1cc(NS(=O)(=O)c2ccc(N)cc2)no1 [Trimeth/Sulfa],MIC,"S. pneumoniae; S. pneumoniae MMX 880, LevR SXTR CCR EryR PenR",4/76
same,MIC,"S. pneumoniae; S. pneumoniae MMX 937, MemR SXTR CCR EryR PenR",16/304
same,MIC,"S. pneumoniae; S. pneumoniae MMX 3959, CCR EryR",2/38
same,MIC,"S. pneumoniae; S. pneumoniae MMX 5440, MemR SXTR CCR EryR PenR",16/304
same,MIC,"S. pneumoniae; S. pneumoniae MMX 5445, MemR SXTR CCR EryR PenR",8/152
same,MIC,"S. pneumoniae; S. pneumoniae MMX 8133, MemR SXTR CCR EryR PenR",8/152
Cc1onc(-c2ccccc2)c1C(=O)N[C@@H]1C(=O)N2[C@@H]1SC(C)(C)[C@@H]2C(=O)O [Oxacillin],MIC,S. aureus,0.2 µg/mL
